Experimental data from article PMC4325551, “Inhibition of Rat 5α-Reductase Activity and Testosterone-Induced Sebum Synthesis in Hamster Sebocytes by an Extract of Quercus acutissima Cortex” (Evidence-based Complementary and Alternative Medicine : eCAM, 2015).

Legend:
[1] = target: T1, rat liver microsomal 5α-reductase (Rattus norvegicus, UniProt P24008); experiment: 5α-reductase assay using rat liver microsomes (testosterone metabolism, HPLC and TLC); type: biochemical; details: for Inhibitory activity on 5α-reductase (% of control): mean ± SEM, N = 3
T1 construct: The reaction was started with the addition of liver microsomes (20 μg protein); from tissue; host or cells: liver microsomes of male Sprague–Dawley rats
T1 sequence (P24008 1-259): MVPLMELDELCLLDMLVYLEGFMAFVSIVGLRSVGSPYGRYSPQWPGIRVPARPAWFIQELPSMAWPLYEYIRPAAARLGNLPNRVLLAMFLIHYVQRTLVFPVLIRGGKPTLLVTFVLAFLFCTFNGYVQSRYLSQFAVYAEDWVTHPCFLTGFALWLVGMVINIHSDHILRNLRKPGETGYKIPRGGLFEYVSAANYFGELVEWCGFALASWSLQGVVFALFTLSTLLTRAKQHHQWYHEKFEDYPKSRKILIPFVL
Description: Rat liver microsomes were prepared by the method of Lee et al.. Male Sprague–Dawley rats (body weight, 300 to 320 g; Clea Japan, Tokyo, Japan) were fasted overnight to decrease the concentration of liver glycogen and then sacrificed. The liver was excised and washed in ice-cold homogenizing buffer containing 0.32 mol/L sucrose, 1 mmol/L dithiothreitol (Wako Pure Chemical Industries), and 20 mmol/L potassium phosphate, pH 6.5. The following procedures were all carried out at 4°C. The tissue was minced with a pair of scissors and then homogenized in homogenizing buffer using a Potter-Elvehjem grinder. The homogenate was then centrifuged at 10 000 g for 10 min. The resulting pellet was washed with two pellet volumes of homogenizing buffer and centrifuged again. The supernatants from the two centrifugations were combined and further centrifuged at 105 000 g for 1 h. The resulting pellet (microsomes) was suspended in homogenizing buffer and centrifuged again. The microsomes were resuspended in homogenizing buffer. The microsome suspension was divided into small aliquots and stored at −80°C. The microsomes were diluted with 40 mmol/L potassium phosphate, pH 6.5, immediately before use. Unlike human liver, rat liver microsomes have the 5α-R1 but not the 5α-R2 isoform.
Briefly, the reaction solution was preincubated with or without a test sample in 1 mmol/L dithiothreitol, 40 mmol/L potassium phosphate, pH 6.5, 100 μmol/L NADPH (Oriental Yeast, Tokyo, Japan), and 3.5 μmol/L testosterone (Wako Pure Chemical Industries) in a final volume of 0.5 mL for 20 min at room temperature. The reaction was started with the addition of liver microsomes (20 μg protein). After incubation at 37°C for 30 min, the reaction solution was extracted with 2 mL ethyl acetate. The ethyl acetate phase (upper phase) was transferred to a tube and evaporated using a centrifugal concentrator (Tomy Seiko, Tokyo, Japan). Testosterone and the metabolites were measured by two chromatography methods, HPLC (Shimadzu, Kyoto, Japan) and TLC.
The residue was dissolved in acetonitrile and analyzed using the HPLC system. The reverse-phase HPLC analysis was performed on a C18 column (3.0 × 150 mm, GL Science, Japan) at a column oven temperature of 50°C and UV detection of 240 nm. The isocratic mobile phase of acetonitrile/water (50 : 50, v/v) was flowed at 0.4 mL/min through the column.
To detect the steroids by TLC, the residue containing steroids was taken up in ethanol and chromatographed on a TLC plate (Silica gel 60 F254, Merck, Darmstadt, Germany), using ethyl acetate-hexane (1 : 1, v/v) as the developing solvent system at room temperature. Testosterone, (Tokyo Chemical Industry Co., Tokyo, Japan) and 5α-androstane-3α,17β-diol (Sigma-Aldrich) were applied to TLC as androgen standards. The plate was exposed to 10% sulfuric acid using an atomizer and then heated on a hot plate. The fluorescent signals were visualized by irradiation of UV light at 302 nm using a ChemiDoc XRS Plus (BIO-RAD, Hercules, CA).

[2] = test system: human intestinal epithelial Caco-2 cells; set-up: method as in PMID 16890919, PMID 16580640; details: transport inhibited by phlorizin (SGLT-1 inhibitor); ref [34], [35]; cited from earlier work
[3] = test system: primary hamster sebocytes (Ha-SE); experiment: testosterone-induced sebum synthesis (lipogenesis) assay in hamster sebocytes; type: cell-based; details: 10 and 30 μmol/L; 10 μmol/L testosterone; 8 days
Description: (§1) Primary hamster sebocytes (Ha-SE) were purchased from Kurabo Industries (Osaka, Japan) and maintained in a culture medium containing […] epidermal growth factor (EGF), 2% (v/v) human serum (HS), 8% (v/v) heat-inactivated fetal bovine serum (FBS) (Kurabo Industries), and a cocktail of penicillin G and streptomycin (Sigma-Aldrich). All assays using Ha-SE cells were performed between the 5th and 6th passage. For the study dealing with sebum synthesis, a sebum detecting kit (Kurabo industries) was used. […] The amount of sebum synthesized was evaluated by measuring lipid production and cell growth according to the manufacturer's instructions. That is, the lipid in sebaceous cells was stained with Oil Red O, extracted in 100% isopropanol, and quantified by a spectrometer at 520 nm. The cell growth was measured using XTT reagent (Biological Industries, Beit Haemek, Israel). The lipogenesis was calculated following the formula as relative sebum synthesis per cell number: lipogenesis = A/B, where A = OD 520 nm of 200 μL extract solution of 300 μL 100% isopropanol for extract of Oil red O dye and B = OD 465/630 nm of 200 μL of 450 μL culture fluids containing XTT reagent following incubation for 30 min. […]

[4] = test system: primary hamster sebocytes (Ha-SE); experiment: insulin-induced sebum synthesis (lipogenesis) assay in hamster sebocytes; type: cell-based; details: 10 and 30 μmol/L; 10 μg/mL insulin; 8 days
Description: as §1

[5] = test system: primary hamster sebocytes (Ha-SE); experiment: cell cytotoxicity (XTT) in undifferentiated hamster sebocytes; details: 24 h with BK (10, 30 μg/mL) or pentagalloyl glucose (10, 30 μmol/L) in the presence of EGF
Description: Four Figures and Two Tables
Hamster-derived sebaceous gland cells (Ha-SE) were precultured until confluent in the presence of 10 ng/mL epidermal growth factor (EGF), and further cultured with 10, 30 […]
vehicle in the presence of EGF. Twenty four hours later, cell cytotoxicity was measured […]
Fig. S2. Bioconversion of exogenous dihydrotestosterone to 5α-androstane-3,17-diol by rat liver microsomal enzymes […]
min in the presence or absence of rat liver microsomes (40 μg/mL) and the co-factors.
The metabolites were extracted with ethyl acetate after incubation, and analyzed by TLC. All androgen standards were applied at 0.1 μg/μL/spot. T.: testosterone, DHT: dihydrotestosterone, A.diol: 5α-androstane-3α,17β-diol

## O=C(OC[C@H]1O[C@@H](OC(=O)c2cc(O)c(O)c(O)c2)[C@H](OC(=O)c2cc(O)c(O)c(O)c2)[C@@H](OC(=O)c2cc(O)c(O)c(O)c2)[C@@H]1OC(=O)c1cc(O)c(O)c(O)c1)c1cc(O)c(O)c(O)c1 [Pentagalloyl glucose, 1,2,3,4,6-penta-O-galloyl glucose]
[1]; at 10 and 100 μmol/L
  inhibition of 5α-reductase activity: more than 50%
[1]; test sample 0.1 μmol/L, testosterone 3.5 μmol/L, 30 min, rat liver microsomes 40 μg/mL, HPLC
  Inhibitory activity on 5α-reductase (% of control): 5.4 ± 1.3 % of control
[1]; test sample 1 μmol/L, testosterone 3.5 μmol/L, 30 min, rat liver microsomes 40 μg/mL, HPLC
  Inhibitory activity on 5α-reductase (% of control): 36.1 ± 6.5 % of control
[1]; test sample 10 μmol/L, testosterone 3.5 μmol/L, 30 min, rat liver microsomes 40 μg/mL, HPLC
  Inhibitory activity on 5α-reductase (% of control): 83.5 ± 1.3 % of control
[1]; test sample 100 μmol/L, testosterone 3.5 μmol/L, 30 min, rat liver microsomes 40 μg/mL, HPLC
  Inhibitory activity on 5α-reductase (% of control): 107.9 ± 2.2 % of control
[1]; testosterone 3.5 μmol/L, 30 min, rat liver microsomes 40 μg/mL, HPLC
  IC50: 2500 nM
[2]
  transport across Caco-2 monolayer: crosses a monolayer
[3]
  testosterone-induced lipogenesis: significantly downregulated
[4]
  insulin-induced lipogenesis: significantly downregulated
[5]
  cell metabolic activities: not changed compared with the vehicle control
